# In ChEMBL document CHEMBL4118277, “Selective inhibition of monoamine oxidase A by chelerythrine, an isoquinoline alkaloid” (Bioorg Med Chem Lett, 2018):
# How the values were obtained:
# [1] = molecular target: T1, Amine oxidase [flavin-containing] B (Homo sapiens, UniProt P27338); test: Inhibition of recombinant human MAO-B assessed as residual activity at 20 uM using benzylamine as substrate incubated for 30 mins by spectrophotometric method relative to control; settings: 0.5 h, read-out: Activity
# T1 sequence (P27338 whole entry): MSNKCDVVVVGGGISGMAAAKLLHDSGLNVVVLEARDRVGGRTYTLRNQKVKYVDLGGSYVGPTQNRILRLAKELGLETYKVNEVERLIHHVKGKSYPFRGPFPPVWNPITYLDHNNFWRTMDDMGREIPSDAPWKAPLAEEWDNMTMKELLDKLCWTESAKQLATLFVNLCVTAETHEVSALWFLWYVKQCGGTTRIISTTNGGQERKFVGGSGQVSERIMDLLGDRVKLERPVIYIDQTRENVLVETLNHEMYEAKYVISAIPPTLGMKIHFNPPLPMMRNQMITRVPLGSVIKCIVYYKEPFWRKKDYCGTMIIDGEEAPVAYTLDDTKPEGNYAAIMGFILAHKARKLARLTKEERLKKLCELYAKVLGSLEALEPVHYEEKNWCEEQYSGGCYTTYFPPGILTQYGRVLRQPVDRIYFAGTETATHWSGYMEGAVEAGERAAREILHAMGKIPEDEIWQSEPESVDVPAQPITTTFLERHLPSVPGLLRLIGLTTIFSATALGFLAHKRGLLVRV
# [2] = molecular target: T2, Amine oxidase [flavin-containing] A (Homo sapiens, UniProt P21397); test: Inhibition of recombinant human MAO-A assessed as residual activity at 20 uM using kynuramine as substrate incubated for 20 mins by spectrophotometric method relative to control; settings: read-out: Activity
# T2 sequence (P21397 whole entry): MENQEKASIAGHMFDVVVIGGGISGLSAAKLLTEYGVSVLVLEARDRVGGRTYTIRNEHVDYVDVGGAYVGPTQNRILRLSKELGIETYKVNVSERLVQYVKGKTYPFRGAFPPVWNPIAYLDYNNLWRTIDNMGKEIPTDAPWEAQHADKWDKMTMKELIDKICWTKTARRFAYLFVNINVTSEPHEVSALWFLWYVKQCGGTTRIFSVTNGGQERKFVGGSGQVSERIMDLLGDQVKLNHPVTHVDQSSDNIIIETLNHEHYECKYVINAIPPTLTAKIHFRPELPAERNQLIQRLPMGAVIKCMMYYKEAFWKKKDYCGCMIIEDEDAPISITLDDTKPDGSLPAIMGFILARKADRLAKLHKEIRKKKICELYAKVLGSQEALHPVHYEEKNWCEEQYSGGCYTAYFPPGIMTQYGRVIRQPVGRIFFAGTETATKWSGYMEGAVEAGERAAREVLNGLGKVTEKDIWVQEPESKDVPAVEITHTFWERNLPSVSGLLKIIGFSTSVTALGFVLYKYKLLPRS
# [3] = molecular target: T1, Amine oxidase [flavin-containing] B; test: Inhibition of recombinant human MAO-B using benzylamine as substrate incubated for 30 mins by spectrophotometric method
# [4] = molecular target: T2, Amine oxidase [flavin-containing] A; test: Inhibition of recombinant human MAO-A using kynuramine as substrate incubated for 20 mins by spectrophotometric method
# [5] = species on record: Homo sapiens; test: Selectivity index, ratio of IC50 for recombinant human MAO-B to IC50 for recombinant human MAO-A
# [6] = molecular target: T2, Amine oxidase [flavin-containing] A; test: Inhibition of recombinant human MAO-A using kynuramine as substrate by spectrophotometric method; settings: TDE = time-dependent effect
# [7] = molecular target: T2, Amine oxidase [flavin-containing] A; test: Reversible inhibition of recombinant human MAO-A assessed as residual activity at 1.1 uM using kynuramine as substrate preincubated for 30 mins followed by dialysis for 6 hrs by spectrophotometric method relative to control; settings: read-out: Activity
# [8] = molecular target: T2, Amine oxidase [flavin-containing] A; test: Inhibition of recombinant human MAO-A assessed as residual activity at 1.1 uM using kynuramine as substrate after 30 mins by spectrophotometric method relative to control; settings: 0.5 h, read-out: Activity
# [9] = molecular target: T2, Amine oxidase [flavin-containing] A; test: Competitive inhibition of recombinant human MAO-A using kynuramine as substrate by Lineweaver-Burk plot analysis
# [10] = molecular target: T2, Amine oxidase [flavin-containing] A; test: Inhibition of recombinant human MAO-A expressed in baculovirus infected insect cells using aminoproplyether of luciferin methyl ester as substrate after 90 mins by chemiluminescence assay
SMILES,activity at 20 µM [1],activity at 20 µM [2],IC50 [3],IC50 [4],also measured
COc1cc2c(cc1O)[C@H]1Cc3ccc(OC)c(OC)c3CN1CC2,91.4%,93.4%,> 20 µM,> 20 µM,–
CN1Cc2c(ccc3c2OCO3)[C@@]2(C)[C@@H](O)Cc3cc4c(cc3[C@@H]12)OCO4,87.6%,87.9%,> 20 µM,> 20 µM,–
COc1cc2c(cc1OC)[C@@H]1[C@H](C)c3ccc(OC)c(OC)c3CN1CC2,54.7%,79.5%,24.1 µM,> 20 µM,–
COc1cc2c(cc1OC)[C@@H]1Cc3ccc(O)c(OC)c3CN1CC2,92.8%,85.6%,> 20 µM,> 20 µM,–
COc1ccc(-c2cc(=O)c3c(O)cc(O)cc3o2)cc1,–,–,–,–,Ratio IC50 [5]: 0.89
O=C1/C(=C/c2ccc(O)cc2)Oc2cc(O)ccc21,–,–,–,–,Ratio IC50 [5]: 9.4
COc1ccc2c(c[n+](C)c3c4cc5c(cc4ccc23)OCO5)c1OC [CHELERYTHRINE],94.3%,28.3%,> 20 µM,0.55 µM,Ratio IC50 [5]: > 36.4; inhibition (INH) [6]: Tde; activity at 1.1 µM [7]: 75%; activity at 1.1 µM [8]: 28.5%; Ki [9]: 0.22 µM
C#CCN(C)CCCOc1ccc(Cl)cc1Cl [CLORGILINE],–,–,–,–,activity at 1.1 µM [7]: 18.3%; activity at 1.1 µM [8]: 17.3%
COc1cc(-c2[o+]c3cc(O)cc(O)c3cc2O)cc(OC)c1O [MALVIDIN CHLORIDE],–,–,–,–,IC50 [10]: 22.1 µM
COc1cc2c(cc1OC)-c1c(OC)c(OC)cc3ccnc(c13)C2=O [OXOGLAUCINE],64.9%,89.7%,> 20 µM,> 20 µM,–
Cc1cccc(N2CC(CO)OC2=O)c1 (stereo unspecified) [TOLOXATONE],–,–,–,–,activity at 1.1 µM [7]: 75.4%; activity at 1.1 µM [8]: 30.7%
